This passage reports IC50 results from patent US9850283B2, “Macrocyclic inhibitors of the PD-1/PD-L1 and CD80(B7-1)/PD-L1 protein/protein interactions” (BRISTOL-MYERS SQUIBB COMPANY, priority 2013, dated 2017).

By IC50 is commonly meant the midpoint of a concentration-inhibition curve.

Assay [1] concerns the target T1, LK35.2-hPD-L1 cells / PE-labeled PD-1-Ig (Homo sapiens, UniProt Q9NZQ7).
T1 construct: expressed in transfected cells; host or cells: LK35.2 mouse B cell line
The experiment in a line: LK35.2-hPD-L1 cell binding high-content screening assay. It is filed as cell-based. Conditions: cluster symbol, read-out: CBA IC50 cluster. Put shortly: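 Using overnight-cultured LK35.2-hPD-L1 mouse B cells, compound was co-incubated with phycoerythrin-tagged human PD-1-Ig (final 1 nM) at 37 °C for one hour. Unbound label was removed by triple dPBS washing prior to high-content image acquisition and analysis.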

For a further assay, the target named is T2, Human PD-L1/PD-1 (Homo sapiens, UniProt Q9NZQ7).
T2 construct: made in house; host or cells: HEK293T
T2 sequence (Q9NZQ7 with tags, fused parts or gaps): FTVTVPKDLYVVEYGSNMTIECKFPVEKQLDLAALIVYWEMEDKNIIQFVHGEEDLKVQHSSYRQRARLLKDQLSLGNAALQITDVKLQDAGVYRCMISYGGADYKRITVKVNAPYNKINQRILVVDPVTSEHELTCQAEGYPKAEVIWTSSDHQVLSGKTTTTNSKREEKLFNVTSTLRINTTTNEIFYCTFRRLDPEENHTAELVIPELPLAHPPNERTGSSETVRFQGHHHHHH
Put plainly: HTRF PD-1-Ig/PD-L1-His binding assay (human PD-L1). Conditions: cluster symbol; read-out: HTRF IC50 cluster. Put shortly: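 Soluble Fc-fused PD-1 and His-tagged PD-L1 (truncated before the transmembrane region) were combined in dPBS with 0.1% (w/v) BSA and 0.05% (v/v) Tween-20. Binding was read by HTRF using europium cryptate anti-Ig antibody (1 nM final) and APC anti-His antibody (20 nM final).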

[2] abbreviates: cell binding assay, cell line not given.
Setting [3] is: cell line of CBA not given (LK35.2-hPD-L1 or 293T-hPD-L1).

Read-outs that look alike come from different tables or passages of the source. Positions of bridges follow the written chain, without caps; N, C: chain ends. Non-standard residues stand in square brackets, D forms with d. Residues, ends and D or L forms follow the SMILES beside them. ξ: configuration not given here. Phe(3,4-(OMe)2) = COc1ccc(C[C@H](N)C(=O)O)cc1OC; Phe(4-Cl) = N[C@@H](Cc1ccc(Cl)cc1)C(=O)O; Bta = N[C@@H](Cc1csc2ccccc12)C(=O)O; Hyp = O=C(O)[C@@H]1C[C@@H](O)CN1; NMeF = CN[C@@H](Cc1ccccc1)C(=O)O; NMeNle = CCCC[C@H](NC)C(=O)O; NMeA = CN[C@@H](C)C(=O)O; Orn = NCCC[C@H](N)C(=O)O; Dab = NCC[C@H](N)C(=O)O; Dap = NC[C@H](N)C(=O)O; ξC = NC(CS)C(=O)O; Sar = CNCC(=O)O

T1 sequence (Q9NZQ7 19-290): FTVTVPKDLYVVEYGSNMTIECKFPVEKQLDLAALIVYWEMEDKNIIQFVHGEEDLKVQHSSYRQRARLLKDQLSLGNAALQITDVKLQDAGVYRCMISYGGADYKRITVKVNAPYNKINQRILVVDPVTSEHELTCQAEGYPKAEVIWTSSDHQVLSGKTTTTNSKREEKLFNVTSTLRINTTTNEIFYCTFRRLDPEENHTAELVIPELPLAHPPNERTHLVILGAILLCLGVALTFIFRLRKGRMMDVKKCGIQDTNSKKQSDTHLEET

As to `CCCC[C@H]1C(=O)N(C)[C@@H](CCCC)C(=O)N[C@@H](CCCNC(=N)N)C(=O)N[C@H](C(=O)NCC(N)=O)CSCC(=O)N[C@@H](Cc2ccc(O)cc2)C(=O)N(C)[C@@H](C)C(=O)N[C@@H](CCN)C(=O)N2CCC[C@H]2C(=O)N[C@@H](Cc2c[nH]cn2)C(=O)N[C@@H](CCC(N)=O)C(=O)N2C[C@H](O)C[C@H]2C(=O)N[C@@H](Cc2c[nH]c3ccccc23)C(=O)N[C@@H](CO)C(=O)N[C@@H](Cc2c[nH]c3ccccc23)C(=O)N1C` [Example 5092] ({CH2CO}-Y[NMeA][Dab]PHQ[Hyp]WSW[NMeNle][NMeNle]RCG-NH2; thioether N-14), the results for the IC50 (in assay [1] (setting [2]); on Human PD-L1/PD-1) were 4.78 to 72.9 nM and 6.76 to 30.3 nM, respectively.

Turning to `CCCC[C@H]1C(=O)N(C)[C@@H](C)C(=O)N[C@@H](CCCNC(=N)N)C(=O)NC(C(=O)NCC(N)=O)CSCC(=O)N[C@@H](Cc2ccc(O)cc2)C(=O)N(C)[C@@H](C)C(=O)N[C@@H](CC(N)=O)C(=O)N2CCC[C@H]2C(=O)N[C@@H](Cc2cnc[nH]2)C(=O)N[C@@H](CC(C)C)C(=O)N2CCC[C@H]2C(=O)N[C@@H](Cc2c[nH]c3ccccc23)C(=O)N[C@@H](CO)C(=O)N[C@@H](Cc2c[nH]c3ccccc23)C(=O)N1C` (some centres unmarked) [Example 9054] ({CH2CO}-Y[NMeA]NPHLPWSW[NMeNle][NMeA]R[ξC]G-NH2; thioether N-14), the IC50 lay within 4.78 to 72.9 nM in assay [1] (setting [2]) and 0.385 to 6.74 nM on Human PD-L1/PD-1.

For `CC[C@H](C)[C@H]1C(=O)N(C)CC(=O)N[C@@H](CC(=O)O)C(=O)N[C@@H](C(C)C)C(=O)N(C)[C@@H](Cc2ccccc2)C(=O)N[C@@H](Cc2ccc(O)cc2)C(=O)N(C)CC(=O)N[C@@H](Cc2c[nH]c3ccccc23)C(=O)N[C@@H](Cc2ccc(O)cc2)C(=O)N[C@@H](CC(C)C)C(=O)N[C@H](C(=O)NCC(N)=O)CSCC(=O)N[C@@H](Cc2ccccc2)C(=O)N(C)[C@@H](Cc2ccccc2)C(=O)N1C` [Example 3142] (HELM PEPTIDE1{[O=C(C[*:3])[*:2]].F.[meF].[meI].[Sar].D.V.[meF].Y.[Sar].W.Y.L.C.G.[am]}$PEPTIDE1,PEPTIDE1,1:R3-14:R3$$$V2.0), the IC50 in assay [1] (setting [3]) fell in the range of 4.78 to 72.9 nM; at Human PD-L1/PD-1 it was 6.76 to 30.3 nM.

On to `CCCC[C@H]1C(=O)N(C)CC(=O)N[C@@H](CC(=O)O)C(=O)N[C@@H](C(C)C)C(=O)N[C@@H](Cc2ccc(Cl)cc2)C(=O)N[C@@H](Cc2ccc(O)cc2)C(=O)N(C)CC(=O)N[C@@H](Cc2c[nH]c3ccccc23)C(=O)N[C@@H](Cc2ccc(O)cc2)C(=O)N[C@@H](CC(C)C)C(=O)N[C@H](C(=O)NCC(N)=O)CSCC(=O)N[C@@H](Cc2ccccc2)C(=O)N(C)[C@@H](Cc2ccccc2)C(=O)N1C` [Example 3145] ({CH2CO}-F[NMeF][NMeNle][Sar]DV[Phe(4-Cl)]Y[Sar]WYLCG-NH2; thioether N-13), for which the IC50 is over 74.3 nM in assay [1] (setting [3]) and over 30.5 nM at Human PD-L1/PD-1.

As to `CCCC[C@H]1C(=O)N(C)CC(=O)N[C@@H](CC(=O)O)C(=O)N[C@@H](C(C)C)C(=O)N(C)[C@@H](Cc2ccccc2)C(=O)N[C@@H](CCC(=O)O)C(=O)N(C)CC(=O)N[C@@H](Cc2c[nH]c3ccccc23)C(=O)N[C@@H](Cc2ccc(O)cc2)C(=O)N[C@@H](CC(C)C)C(=O)N[C@H](C(=O)NCC(N)=O)CSCC(=O)N[C@@H](Cc2ccccc2)C(=O)N(C)[C@@H](Cc2ccccc2)C(=O)N1C` [Example 3507] (HELM PEPTIDE1{[O=C(C[*:3])[*:2]].F.[meF].[CCCC[C@@H](C(=O)[*:2])N(C)[*:1]].[Sar].D.V.[meF].E.[Sar].W.Y.L.C.G.[am]}$PEPTIDE1,PEPTIDE1,1:R3-14:R3$$$V2.0), the IC50 in assay [1] (setting [2]) is over 74.3 nM; on Human PD-L1/PD-1 it was 6.76 to 30.3 nM.

With `CCCC[C@H]1C(=O)N(C)[C@@H](CCCC)C(=O)N[C@@H](CCCNC(=N)N)C(=O)N[C@H](C(=O)NCC(N)=O)CSCC(=O)N[C@@H](Cc2ccc(OC)c(OC)c2)C(=O)N(C)[C@@H](C)C(=O)N[C@@H](CC(N)=O)C(=O)N2CCC[C@H]2C(=O)N[C@@H](CN)C(=O)N[C@@H](CC(C)C)C(=O)N2C[C@H](O)C[C@H]2C(=O)N[C@@H](Cc2c[nH]c3ccccc23)C(=O)N[C@@H](CO)C(=O)N[C@@H](Cc2c[nH]c3ccccc23)C(=O)N1C` [Example 7040] ({CH2CO}-[Phe(3,4-(OMe)2)][NMeA]NP[Dap]L[Hyp]WSW[NMeNle][NMeNle]RCG-NH2; thioether N-14), the values for the IC50 (in assay [1] (setting [2]); on Human PD-L1/PD-1) were 4.78 to 72.9 nM and 0.385 to 6.74 nM, respectively.

On to `CCCC[C@H]1C(=O)N(C)[C@@H](CCCC)C(=O)N[C@@H](CCCN)C(=O)N[C@H](C(=O)NCC(N)=O)CSCC(=O)N[C@@H](Cc2ccc(O)cc2)C(=O)N(C)[C@@H](C)C(=O)N[C@@H](CC(=O)O)C(=O)N2CCC[C@H]2C(=O)N[C@@H](CN)C(=O)N[C@@H](CCC(N)=O)C(=O)N2C[C@H](O)C[C@H]2C(=O)N[C@@H](Cc2c[nH]c3ccccc23)C(=O)N[C@@H](CCN)C(=O)N[C@@H](Cc2csc3ccccc23)C(=O)N1C` [Example 1182] ({CH2CO}-Y[NMeA]DP[Dap]Q[Hyp]W[Dab][Bta][NMeNle][NMeNle][Orn]CG-NH2; thioether N-14), for which the IC50 in assay [1] (setting [3]) fell in the range of 0.158 to 4.71 nM; at Human PD-L1/PD-1 it was 0.385 to 6.74 nM.

For the molecule `CCCC[C@H]1C(=O)N(C)[C@@H](CCCC)C(=O)N[C@@H](CC(C)C)C(=O)N[C@H](C(=O)NCC(N)=O)CSCC(=O)N[C@@H](Cc2ccc(O)cc2)C(=O)N(C)[C@@H](C)C(=O)N[C@@H](CC(N)=O)C(=O)N2CCC[C@H]2C(=O)N[C@@H](CO)C(=O)N[C@@H](CC(C)C)C(=O)N2C[C@H](O)C[C@H]2C(=O)N[C@@H](Cc2c[nH]c3ccccc23)C(=O)N[C@@H](CCN)C(=O)N[C@@H](Cc2c[nH]c3ccccc23)C(=O)N1C` [Example 5073] ({CH2CO}-Y[NMeA]NPSL[Hyp]W[Dab]W[NMeNle][NMeNle]LCG-NH2; thioether N-14), the IC50 in assay [1] (setting [2]) fell in the range of 0.158 to 4.71 nM; on Human PD-L1/PD-1, 0.385 to 6.74 nM.

As for `CCCC[C@H]1C(=O)N(C)[C@@H](CCCC)C(=O)N[C@@H](CCCNC(=N)N)C(=O)N[C@H](C(=O)NCC(N)=O)CSCC(=O)N[C@@H](Cc2ccc(O)cc2)C(=O)N(C)[C@@H](CCC(=O)O)C(=O)N[C@@H](CC(N)=O)C(=O)N2CCC[C@H]2C(=O)N[C@@H](Cc2cnc[nH]2)C(=O)N[C@@H](CC(C)C)C(=O)N(C)CC(=O)N[C@@H](Cc2c[nH]c3ccccc23)C(=O)N[C@@H](CO)C(=O)N[C@@H](Cc2c[nH]c3ccccc23)C(=O)N1C` [Example 1189], the IC50 is over 74.3 nM in assay [1] (setting [3]) and over 30.5 nM on Human PD-L1/PD-1.

With `CCCC[C@H]1C(=O)N(C)CC(=O)N[C@@H](CC(=O)O)C(=O)N[C@@H](C(C)C)C(=O)N(C)[C@@H](Cc2ccccc2)C(=O)N[C@@H](Cc2ccc(O)cc2)C(=O)N(C)CC(=O)N[C@@H](Cc2c[nH]c3ccccc23)C(=O)N[C@@H](Cc2ccc(O)cc2)C(=O)N[C@@H](CC(C)C)C(=O)N[C@H](C(=O)NCC(N)=O)CSCC(=O)N[C@@H](CCSC)C(=O)N(C)[C@@H](Cc2ccccc2)C(=O)N1C` [Example 3172] (HELM PEPTIDE1{[O=C(C[*:3])[*:2]].M.[meF].[CCCC[C@@H](C(=O)[*:2])N(C)[*:1]].[Sar].D.V.[meF].Y.[Sar].W.Y.L.C.G.[am]}$PEPTIDE1,PEPTIDE1,1:R3-14:R3$$$V2.0), the IC50 in assay [1] (setting [3]) is over 74.3 nM; on Human PD-L1/PD-1, over 30.5 nM.
